Reference: US20250170107A1, “IMIDAZOPYRIDINE INHIBITORS OF TYROSINE KINASE” (BridGene Biosciences. Inc., priority 2022, published 2025)
pIC50: −log10 of the molar value.

Columns and labels:
FLT3 = biological target: T1, FLT3 (Homo sapiens, UniProt P36888); assay: Caliper mobility shift kinase inhibition assay, recombinant FLT3; format: biochemical; conditions: recombinant FLT-3 0.1 nM, ATP 95 μM, incubation 3 hr, room temperature
T1 construct: purchased ThermoFisher PV3182
T1 sequence (P36888 27-993): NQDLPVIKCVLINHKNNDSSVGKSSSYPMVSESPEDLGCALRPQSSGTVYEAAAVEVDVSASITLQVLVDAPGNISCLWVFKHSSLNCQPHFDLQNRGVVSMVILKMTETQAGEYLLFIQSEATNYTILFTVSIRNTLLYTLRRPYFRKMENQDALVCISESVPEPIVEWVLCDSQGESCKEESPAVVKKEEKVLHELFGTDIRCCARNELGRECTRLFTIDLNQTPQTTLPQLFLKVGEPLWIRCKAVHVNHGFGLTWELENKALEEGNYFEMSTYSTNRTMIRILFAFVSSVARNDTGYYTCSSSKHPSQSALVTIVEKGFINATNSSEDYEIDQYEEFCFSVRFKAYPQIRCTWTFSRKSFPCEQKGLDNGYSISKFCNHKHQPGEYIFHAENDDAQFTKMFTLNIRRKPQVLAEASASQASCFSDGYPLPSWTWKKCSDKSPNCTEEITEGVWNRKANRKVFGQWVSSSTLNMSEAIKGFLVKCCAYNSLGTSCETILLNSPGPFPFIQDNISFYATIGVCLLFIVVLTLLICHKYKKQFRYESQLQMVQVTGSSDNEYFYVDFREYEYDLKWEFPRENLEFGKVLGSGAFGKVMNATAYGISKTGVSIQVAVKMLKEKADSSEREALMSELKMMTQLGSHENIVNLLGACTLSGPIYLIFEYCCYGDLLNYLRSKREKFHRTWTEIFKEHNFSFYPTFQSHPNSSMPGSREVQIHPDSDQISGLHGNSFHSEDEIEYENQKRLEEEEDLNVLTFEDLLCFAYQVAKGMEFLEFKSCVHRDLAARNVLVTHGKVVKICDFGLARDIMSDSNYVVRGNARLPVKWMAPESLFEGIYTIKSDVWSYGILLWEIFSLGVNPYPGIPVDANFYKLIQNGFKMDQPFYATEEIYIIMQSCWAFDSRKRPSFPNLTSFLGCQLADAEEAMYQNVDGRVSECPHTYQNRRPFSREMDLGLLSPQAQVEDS
Protocol: Compounds' inhibition of recombinant kinases (FLT3, KIT) was measured using Caliper mobility shift assay, which is based on the difference in capillary electrophoresis mobility of a fluorescent-tagged peptide as a result of a phosphorylation by the kinase under study. Reactions were started by the addition of various concentrations of a compound (originally in DMSO solution) to a kinase solution in assay buffer followed by addition of a mixture of ATP and a fluorescent-tagged peptide substrate in assay buffer. Concentrations of the enzyme, ATP and thepeptide were pre-optimized so that 15% substrate conversion to ensure initial velocity measurements. After incubation for 3 hours at room temperature, the kinase reaction was quenched by the addition of a concentrated EDTA solution before analysis on a LabChip EZ Reader II to yield percentage inhibition by comparing to the DMSO control. Table 2 below summarizes the assay conditions for the characterization of the kinase inhibition properties of the disclosed compounds.

KIT = biological target: T2, KIT (Homo sapiens, UniProt P10721); assay: Caliper mobility shift kinase inhibition assay, recombinant KIT; format: biochemical; conditions: recombinant KIT 0.9 nM, ATP 400 μM, incubation 17 hr (Table 2)
T2 construct: purchased BPS 40250

MV4-11 = assay: Cell viability assay (CellTiter-Glo), FLT3 cell-based assay; conditions: MV4-11 cells, 72 hr at 37° C., 0.1% DMSO
Protocol: Cell viability assay was performed based on the following brief procedures. Cells were plated at the density of 5K/well with volume of 180 μL in 96-well white plate and clear bottom plates. 20 μL of veh. or compound was added at proper concentration to the well. The final volume is 200 μL, with final conc. of DMSO=0.1%, 11 points, triplicates. The cells were then treated at 37° C. in the TC incubator for 72 hr. Equal volume (200 μL) of CellTiter-Glo reagent (Promega) was added to the well and protect from light at room temperature for 15 min. The chemiluminescence was measured with EnSight (Perkin Elmer). GraphPad Prism non-linear regression, Log[inhibitor] response with four parameters were used to calculate GI50.

T2 sequence (P10721 26-976): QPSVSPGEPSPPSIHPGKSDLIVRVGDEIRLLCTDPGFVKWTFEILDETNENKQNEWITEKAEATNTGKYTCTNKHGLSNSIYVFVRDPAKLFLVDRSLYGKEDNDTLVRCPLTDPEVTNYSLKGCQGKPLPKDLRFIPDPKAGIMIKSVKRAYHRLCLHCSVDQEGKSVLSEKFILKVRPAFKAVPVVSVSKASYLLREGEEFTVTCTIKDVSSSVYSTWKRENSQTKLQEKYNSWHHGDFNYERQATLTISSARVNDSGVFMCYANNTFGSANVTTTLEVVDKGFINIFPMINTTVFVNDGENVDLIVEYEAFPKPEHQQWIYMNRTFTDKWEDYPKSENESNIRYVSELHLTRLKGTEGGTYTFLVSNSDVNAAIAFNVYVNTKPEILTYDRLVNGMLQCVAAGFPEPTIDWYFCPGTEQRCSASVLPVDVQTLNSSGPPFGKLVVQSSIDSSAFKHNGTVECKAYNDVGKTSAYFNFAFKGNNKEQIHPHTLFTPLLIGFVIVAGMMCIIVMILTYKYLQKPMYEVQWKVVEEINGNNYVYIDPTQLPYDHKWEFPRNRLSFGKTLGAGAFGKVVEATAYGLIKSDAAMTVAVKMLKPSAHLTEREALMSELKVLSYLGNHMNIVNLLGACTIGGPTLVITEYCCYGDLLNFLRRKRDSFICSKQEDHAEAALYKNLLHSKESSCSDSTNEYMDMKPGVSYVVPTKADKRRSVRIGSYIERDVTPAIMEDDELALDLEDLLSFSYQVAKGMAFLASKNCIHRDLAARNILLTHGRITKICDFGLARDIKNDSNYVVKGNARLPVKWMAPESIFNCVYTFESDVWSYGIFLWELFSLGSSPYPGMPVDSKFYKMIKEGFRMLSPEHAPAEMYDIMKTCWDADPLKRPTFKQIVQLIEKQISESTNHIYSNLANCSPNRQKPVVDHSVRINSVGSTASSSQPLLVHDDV

| Compound | pIC50 (FLT3) | pIC50 (KIT) | GI50 (MV4-11) [nM] | GI50 (MV4-11; Homo sapiens) [nM] |
| --- | --- | --- | --- | --- |
| C=C(F)C(=O)N1C[C@H](O)C[C@H]1C(=O)NCCn1cnc2cnc(Nc3ncc(-c4ncccc4F)s3)cc21 [Example 19, (2S,4R)-1-(2-fluoroprop-2-enoyl)-N-[2-[6-[[5-(3-fluoro-2-pyridyl)thiazol-2-yl]amino]imidazo[4,5-c]pyridin-1-yl]ethyl]-4-hydroxy-pyrrolidine-2-carboxamide] | 8.00 to 9.00 | 7.00 to 8.00 | – | – |
| (2S,3S)-1-(2-fluoroprop-2-enoyl)-N-[2-[6-[[5-(3-fluoro-2-pyridyl)thiazol-2-yl]amino]imidazo[4,5-c]pyridin-1-yl]ethyl]-3-hydroxy-pyrrolidine-2-carboxamide [Example 25] | 7.00 to 8.00 | 6.00 to 7.00 | 10 to 100 | – |
| C=CC(=O)N1C[C@@H](O)C[C@H]1C(=O)NCCn1cnc2cnc(Nc3ncc(-c4ccc(F)cc4)s3)cc21 [Example 14, (2S,4S)-N-[2-[6-[[5-(4-fluorophenyl)thiazol-2-yl]amino]imidazo[4,5-c]pyridin-1-yl]ethyl]-4-hydroxy-1-prop-2-enoylpyrrolidine-2-carboxamide] | > 9.00 | > 9.00 | – | < 10 |
| C=CC(=O)N1CCC[C@H]1C(=O)NCCn1cnc2cnc(Nc3ncc(-c4ccc(F)cc4)s3)cc21 [Example 5] | > 9.00 | > 9.00 | – | < 10 |
| C=CC(=O)N1C[C@H](O)C[C@H]1C(=O)NCCn1cnc2cnc(Nc3ncc(-c4ccc(F)cc4)s3)cc21 [Example 13, (2S,4R)-N-[2-[6-[[5-(4-fluorophenyl)thiazol-2-yl]amino]imidazo[4,5-c]pyridin-1-yl]ethyl]-4-hydroxy-1-prop-2-enoylpyrrolidine-2-carboxamide] | > 9.00 | > 9.00 | – | 10 to 100 |
| C=CC(=O)N1C[C@H](O)C[C@H]1C(=O)NCCn1cnc2cnc(Nc3ncc(-c4ncncc4F)s3)cc21 [Example 21, (2S,4R)-N-[2-[6-[[5-(5-fluoropyrimidin-4-yl)thiazol-2-yl]amino]imidazo[4,5-c]pyridin-1-yl]ethyl]-4-hydroxy-1-prop-2-enoyl-pyrrolidine-2-carboxamide] | 8.00 to 9.00 | 7.00 to 8.00 | – | 10 to 100 |
| CN(C)C/C=C/C(=O)N1C[C@H](O)C[C@H]1C(=O)NCCn1cnc2cnc(Nc3ncc(-c4ncccc4F)s3)cc21 [Example 20, (2S,4R)-1-[(E)-4-(dimethylamino)but-2-enoyl]-N-[2-[6-[[5-(3-fluoro-2-pyridyl)thiazol-2-yl]amino]imidazo[4,5-c]pyridin-1-yl]ethyl]-4-hydroxy-pyrrolidine-2-carboxamide] | > 9.00 | > 9.00 | – | – |
| CN(C)C/C=C/C(=O)N1CCC[C@H]1C(=O)NCCn1cnc2cnc(Nc3ncc(-c4ccc(F)cc4)s3)cc21 [Example 3, (2S)-1-[(E)-4-(dimethylamino)but-2-enoyl]-N-[2-[6-[[5-(4-fluorophenyl)thiazol-2-yl]amino]imidazo[4,5-c]pyridin-1-yl]ethyl]pyrrolidine-2-carboxamide] | > 9.00 | 8.00 to 9.00 | – | 10 to 100 |
| C/C=C\C(=O)N1CCC[C@H]1C(=O)NCCn1cnc2cnc(Nc3ncc(-c4ncccc4F)s3)cc21 [Example 11, (2S)-1-[(Z)-but-2-enoyl]-N-[2-[6-[[5-(3-fluoro-2-pyridyl)thiazol-2-yl]amino]imidazo[4,5-c]pyridin-1-yl]ethyl]pyrrolidine-2-carboxamide] | 8.00 to 9.00 | 6.00 to 7.00 | – | 10 to 100 |
| C=CC(=O)N1C[C@H](O)C[C@H]1C(=O)NCCn1cnc2cnc(Nc3ncc(-c4ncccc4F)s3)cc21 [Example 18, (2S,4R)-N-[2-[6-[[5-(3-fluoro-2-pyridyl)thiazol-2-yl]amino]imidazo[4,5-c]pyridin-1-yl]ethyl]-4-hydroxy-1-prop-2-enoyl-pyrrolidine-2-carboxamide] | > 9.00 | 8.00 to 9.00 | – | – |
| C=CC(=O)N1CCOC[C@H]1C(=O)NCCn1cnc2cnc(Nc3ncc(-c4ccncc4)s3)cc21 [Example 1, (3S)-4-prop-2-enoyl-N-[2-[6-[[5-(4-pyridyl)thiazol-2-yl]amino]imidazo[4,5-c]pyridin-1-yl]ethyl]morpholine-3-carboxamide] | > 9.00 | 8.00 to 9.00 | – | 10 to 100 |
| C=C(F)C(=O)N1CCOC[C@H]1C(=O)NCCn1cnc2cnc(Nc3ncc(-c4ncccc4F)s3)cc21 [Example 16, (3S)-4-(2-fluoroprop-2-enoyl)-N-[2-[6-[[5-(3-fluoro-2-pyridyl)thiazol-2-yl]amino]imidazo[4,5-c]pyridin-1-yl]ethyl]morpholine-3-carboxamide] | 8.00 to 9.00 | 8.00 to 9.00 | – | – |
| C=CC(=O)N1CCC[C@H]1C(=O)NCCn1cnc2cnc(Nc3ncc(-c4ccncc4F)s3)cc21 [Example 8, (2S)-N-[2-[6-[[5-(3-fluoro-4-pyridyl)thiazol-2-yl]amino]imidazo[4,5-c]pyridin-1-yl]ethyl]-1-prop-2-enoyl-pyrrolidine-2-carboxamide] | > 9.00 | > 9.00 | – | < 10 |
| CN(C)C/C=C/C(=O)N1CCOC[C@H]1C(=O)NCCn1cnc2cnc(Nc3ncc(-c4ncccc4F)s3)cc21 [Example 17, (3S)-4-[(E)-4-(dimethylamino)but-2-enoyl]-N-[2-[6-[[5-(3-fluoro-2-pyridyl)thiazol-2-yl]amino]imidazo[4,5-c]pyridin-1-yl]ethyl]morpholine-3-carboxamide] | > 9.00 | > 9.00 | – | – |
| C=CC(=O)N1CCOC[C@H]1C(=O)NCCn1cnc2cnc(Nc3ncc(-c4ccc(F)cc4)s3)cc21 [Example 6, (3S)-N-[2-[6-[[5-(4-fluorophenyl)thiazol-2-yl]amino]imidazo[4,5-c]pyridin-1-yl]ethyl]-4-prop-2-enoyl-morpholine-3-carboxamide] | – | – | – | < 10 |
| C=CC(=O)N1CCC[C@H]1C(=O)NCCn1cnc2cnc(Nc3ncc(-c4ncccc4F)s3)cc21 [Example 9, (2S)-N-[2-[6-[[5-(3-fluoro-2-pyridyl)thiazol-2-yl]amino]imidazo[4,5-c]pyridin-1-yl]ethyl]-1-prop-2-enoyl-pyrrolidine-2-carboxamide] | > 9.00 | > 9.00 | – | < 10 |
| C=CC(=O)N1CC[C@H]1C(=O)NCCn1cnc2cnc(Nc3ncc(-c4ncccc4F)s3)cc21 [Example 7, (2S)-N-[2-[6-[[5-(3-fluoro-2-pyridyl)thiazol-2-yl]amino]imidazo [4,5-c]pyridin-1-yl]ethyl]-1-prop-2-enoyl-azetidine-2-carboxamide] | > 9.00 | > 9.00 | – | – |
| C=CC(=O)N1CCOC[C@H]1C(=O)NCCn1cnc2cnc(Nc3ncc(-c4ncccc4F)s3)cc21 [Example 12, (3S)-N-[2-[6-[[5-(3-fluoro-2-pyridyl)thiazol-2-yl]amino]imidazo[4,5-c]pyridin-1-yl]ethyl]-4-prop-2-enoyl-morpholine-3-carboxamide] | > 9.00 | 7.00 to 8.00 | – | < 10 |
| C=C(F)C(=O)N1CCC[C@H]1C(=O)NCCn1cnc2cnc(Nc3ncc(-c4ncccc4F)s3)cc21 [Example 10] | 8.00 to 9.00 | 7.00 to 8.00 | – | < 10 |
